Reference: US12686687B2, “Compounds and uses thereof” (Foghorn Therapeutics Inc., priority 2019, dated 2026)
pIC50: −log10 of the molar value.

What was measured:
[1] = target: T1, BRD9 bromodomain (Flag-BRD9 P133-K239; Swiss Prot Q9H8M2) (Homo sapiens, UniProt Q9H8M2); test: BRD9 bromodomain TR-FRET competition binding assay; settings: 3 nM Flag-BRD9, 3.75 nM biotinylated ligand, 90 minutes at room temperature
T1 construct: His-Flag-BRD9 (P133-K239); Swiss Prot Q9H8M2; His6 with TEV site (mgsshhhhhhenlyfq/) (N, cleaved yes); made in house
T1 sequence (Q9H8M2 133-239): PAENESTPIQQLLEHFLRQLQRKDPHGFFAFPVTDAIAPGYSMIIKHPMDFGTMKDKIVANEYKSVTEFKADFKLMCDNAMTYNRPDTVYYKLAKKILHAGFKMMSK
Protocol: Cleaved His tag was removed by purification. […] DMSO or 3-fold serially diluted compounds were then added to the Proxiplate followed by addition of Flag-BRD9. After a 10-minute incubation at room temperature, Eu-W1024 anti-FLAG (PerkinElmer, AD0273) was added.

[2] = target: T2, Nanoluciferase-BRD9 fusion protein (3×FLAG-NLuc-BRD9) in SYO-1 cells (Homo sapiens, UniProt Q9H8M2); test: SYO1 BRD9 NanoLuc degradation assay; assay type: cell-based; settings: 6 hours treatment, 1 μM top dose; read-out: SYO1 BRD9-NanoLuc degradation IC50
T2 construct: expressed in transfected cells; host or cells: SYO-1
T2 sequence (Q9H8M2 1-597): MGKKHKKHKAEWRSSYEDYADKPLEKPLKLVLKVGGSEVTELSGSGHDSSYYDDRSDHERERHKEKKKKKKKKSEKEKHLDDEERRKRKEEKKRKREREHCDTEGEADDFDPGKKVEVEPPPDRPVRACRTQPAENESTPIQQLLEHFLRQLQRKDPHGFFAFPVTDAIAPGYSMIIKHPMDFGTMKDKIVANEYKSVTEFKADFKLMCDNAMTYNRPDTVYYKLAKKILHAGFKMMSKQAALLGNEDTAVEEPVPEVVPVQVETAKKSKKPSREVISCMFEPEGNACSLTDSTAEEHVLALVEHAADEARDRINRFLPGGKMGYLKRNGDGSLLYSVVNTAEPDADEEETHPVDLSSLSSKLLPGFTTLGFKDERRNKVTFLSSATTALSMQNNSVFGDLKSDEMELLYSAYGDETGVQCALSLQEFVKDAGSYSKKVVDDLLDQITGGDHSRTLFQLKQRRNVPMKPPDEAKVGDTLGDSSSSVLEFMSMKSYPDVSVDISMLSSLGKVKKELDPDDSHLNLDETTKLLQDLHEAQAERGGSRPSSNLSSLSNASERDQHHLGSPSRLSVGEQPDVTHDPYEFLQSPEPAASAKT
Procedure, shortened: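 Stable SYO-1 line expressing 3×FLAG-NLuc-BRD9 was seeded at 8000 cells/well, then treated next day for 6 h with 10-point 3-fold dilutions (top 1 μM final). Nano-Glo luminescence was read. % inhibition was normalised to DMSO (high control) and 1 μM reference BRD9 degrader (low control).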

| pIC50 [1] | DC50 [2] [nM] | Structure (SMILES) |
| --- | --- | --- |
| < 7.00 | > 100 | COc1cc(-c2cn(C)c(=O)c3cc(NC(=O)[C@@H]4CCCN(C(=O)CCCCOc5cccc6c5C(=O)N(C5CCC(=O)NC5=O)C6=O)C4)sc23)cc(OC)c1CN(C)C (stereo partly drawn) [Compound D7, (3R)—N-(7-[4-[(dimethylamino)methyl]-3,5-dimethoxyphenyl]-5-methyl-4-oxothieno[3,2-c]pyridin-2-yl)-1-(5-[[2-(2,6-dioxopiperidin-3-yl)-1,3-dioxoisoindol-4-yl]oxy]pentanoyl)piperidine-3-carboxamide] |
| < 8.00 | < 10 | Cn1cc(-c2ccc(OCC(=O)NCCCCCCCCNc3cccc4c3C(=O)N(C3CCC(=O)NC3=O)C4=O)c(C(F)(F)F)c2)c2sc(C(=N)NC3CCS(=O)(=O)CC3)cc2c1=O (stereo not shown) [Compound D3, 2-(4-[2-[N-(1,1-dioxo-1λ6-thian-4-yl)carbamimidoyl]-5-methyl-4-oxo-4H,5H-thieno[3,2-c]pyridin-7-yl]-2-(trifluoromethyl)phenoxy)-N-(8-[[2-(2,6-dioxopiperidin-3-yl)-1,3-dioxo-2,3-dihydro-1H-isoindol-4-yl]amino]octyl)acetamide] |
| > 8.00 | > 10 | COc1cc(-c2cn(C)c(=O)c3cc(C(=N)NC4CCS(=O)(=O)CC4)sc23)ccc1OCC(=O)NCCCCCCCCNc1cccc2c1CN(C1CCC(=O)NC1=O)C2=O (stereo not shown) [Compound D2, 2-(4-[2-[N-(1,1-dioxo-A6-thian-4-yl)carbamimidoyl]-5-methyl-4-oxo-4H,5H-thieno[3,2-c]pyridin-7-yl]-2-methoxyphenoxy)-N-(8-[[2-(2,6-dioxopiperidin-3-yl)-1-oxo-2,3-dihydro-1H-isoindol-4-yl]amino]octyl)acetamide] |
| < 8.00 | > 100 | COc1cc(-c2cn(C)c(=O)c3cc(C(=O)NC4CCN(C)CC4)sc23)cc(OC)c1CN(C)CC(=O)NCCOCCOc1cccc2c1C(=O)N(C1CCC(=O)NC1=O)C2=O (stereo not shown) [Compound D14, 7-(4-[[([[2-(2-[[2-(2,6-dioxopiperidin-3-yl)-1,3-dioxoisoindol-4 yl]oxy]ethoxy)ethyl]carbamoyl]methyl)(methyl)amino]methyl]-3,5-dimethoxyphenyl)-5-methyl-N-(1-methylpiperidin-4-yl)-4-oxothieno[3,2-c]pyridine-2-carboxamide] |
| < 8.00 | > 1000 | COc1cc(-c2cn(C)c(=O)c3cc(NC(=O)C4CCCN(CCCCCOc5cccc6c5C(=O)N(C5CCC(=O)NC5=O)C6=O)C4)sc23)cc(OC)c1CN(C)C (stereo not shown) [Compound D9, N-(7-[4-[(dimethylamino)methyl]-3,5-dimethoxyphenyl]-5-methyl-4-oxothieno[3,2-c]pyridin-2-yl)-1-(5-[[2-(2,6-dioxopiperidin-3-yl)-1,3-dioxoisoindol-4-yl]oxy]pentyl)piperidine-3-carboxamide] |
| < 7.00 | > 100 | COc1cc(-c2cn(C)c(=O)c3cc(NC(=O)[C@H]4CCCN(C(=O)CCCCOc5cccc6c5C(=O)N(C5CCC(=O)NC5=O)C6=O)C4)sc23)cc(OC)c1CN(C)C (stereo partly drawn) [Compound D8, (3S)—N-(7-[4-[(dimethylamino)methyl]-3,5-dimethoxyphenyl]-5-methyl-4-oxothieno[3,2-c]pyridin-2-yl)-1-(5-[[2-(2,6-dioxopiperidin-3-yl)-1,3-dioxoisoindol-4-yl]oxy]pentanoyl)piperidine-3-carboxamide] |
| < 7.00 |  | COc1cc(-c2cn(C)c(=O)c3cc(C(=O)N4CCN(C)CC4)sc23)cc(OC)c1CN(C)C [Compound B7, 7-[4-[(dimethylamino)methyl]-3,5-dimethoxyphenyl]-5-methyl-2-(4-methylpiperazine-1-carbonyl)-4H,5H-thieno[3,2-c]pyridin-4-one] |
| < 7.00 | > 1000 | COc1cc(-c2cn(C)c(=O)c3cc(NC(=O)C4CCCN(C(=O)CCOCCOCCNc5cccc6c5C(=O)N(C5CCC(=O)NC5=O)C6=O)C4)sc23)cc(OC)c1CN(C)C (stereo not shown) [Compound D5, N-(7-[4-[(dimethylamino)methyl]-3,5-dimethoxyphenyl]-5-methyl-4-oxothieno[3,2-c]pyridin-2-yl)-1-[3-[2-(2-[[2-(2,6-dioxopiperidin-3-yl)-1,3-dioxoisoindol-4-yl]amino]ethoxy)ethoxy]propanoyl]piperidine-3-carboxamide] |
| < 8.00 |  | COc1cc(-c2cn(C)c(=O)c3cc(NC(=O)C4CN(C)CCO4)sc23)cc(OC)c1CN(C)C (stereo not shown) [Compound B4, N-(7-[4-[(Dimethylamino)methyl]-3,5-dimethoxyphenyl]-5-methyl-4-oxo-4H,5H-thieno[3,2-c]pyridin-2-yl)-4-methylmorpholine-2-carboxamide Formic Acid] |
| < 8.00 | > 10 | COc1cc(-c2cn(C)c(=O)c3cc(NC(=O)C4CCN(C(=O)CCOCCOCCNc5cccc6c5C(=O)N(C5CCC(=O)NC5=O)C6=O)CC4)sc23)cc(OC)c1CN(C)C (stereo not shown) [Compound D4, N-(7-[4-[(dimethylamino)methyl]-3,5-dimethoxyphenyl]-5-methyl-4-oxothieno[3,2-c]pyridin-2-yl)-1-[3-[2-(2-[[2-(2,6-dioxopiperidin-3-yl)-1,3-dioxoisoindol-4-yl]amino]ethoxy)ethoxy]propanoyl]piperidine-4-carboxamide] |
| > 8.00 | > 1000 | COc1cc(-c2cn(C)c(=O)c3cc(C(=O)NC4CCN(CCCCCOc5cccc6c5C(=O)N(C5CCC(=O)NC5=O)C6=O)CC4)sc23)cc(OC)c1CN(C)C (stereo not shown) [Compound D11, 7-(4-((dimethylamino)methyl)-3,5-dimethoxyphenyl)-N-(1-(5-((2-(2,6-dioxopiperidin-3-yl)-1,3-dioxoisoindolin-4-yl)oxy)pentyl)piperidin-4-yl)-5-methyl-4-oxo-4,5-dihydrothieno[3,2-c]pyridine-2-carboxamide] |
| < 8.00 |  | Cn1cc(-c2cccc(C(F)(F)F)c2)c2sc(C(=N)NC3CCS(=O)(=O)NC3)cc2c1=O (stereo not shown) [Compound B1, N-(1,1-dioxo-1λ6,2-thiazinan-4-yl)-5-methyl-4-oxo-7-[3-(trifluoromethyl)phenyl]thieno[3,2-c]pyridine-2-carboximidamide] |
| > 8.00 |  | COc1cc(-c2cn(C)c(=O)c3cc(C(=O)NC4CCN(C)CC4)sc23)cc(OC)c1CN(C)C [Compound B6, 7-[4-[(dimethylamino)methyl]-3,5-dimethoxyphenyl]-5-methyl-N-(1-methylpiperidin-4-yl)-4-oxo-4H,5H-thieno[3,2-c]pyridine-2-carboxamide] |
| < 8.00 |  | COc1cc(-c2cn(C)c(=O)c3cc(NC(=O)C4CCN(C)CC4)sc23)cc(OC)c1CN(C)C [Compound B3, N-(7-[4-[(dimethylamino)methyl]-3,5-dimethoxyphenyl]-5-methyl-4-oxo-4H,5H-thieno[3,2-c]pyridin-2-yl)-1-methylpiperidine-4-carboxamide] |
| < 8.00 |  | COc1ccc(-c2cn(C)c(=O)c3ccsc23)cc1OC [Compound B10, 7-(3,4-dimethoxyphenyl)-5-methyl-4H,5H-thieno[3,2-c]pyridin-4-one] |
| > 8.00 |  | COc1cc(-c2cn(C)c(=O)c3cc(C(=O)NC4CCC(=O)NC4)sc23)cc(OC)c1CN(C)C (stereo not shown) [Compound B5, 7-[4-[(dimethylamino)methyl]-3,5-dimethoxyphenyl]-5-methyl-4-oxo-N-(6-oxopiperidin-3-yl)-4H,5H-thieno[3,2-c]pyridine-2-carboxamide] |
| < 8.00 |  | COc1cc(-c2cn(C)c(=O)c3cc(C(=N)NC4CCS(=O)(=O)CC4)sc23)ccc1OCC(=O)O [Compound B8, 2-(4-[2-[N-(1,1-dioxo-1λ6-thian-4-yl)carbamimidoyl]-5-methyl-4-oxo-4H,5H-thieno[3,2-c]pyridin-7-yl]-2-methoxyphenoxy)acetic Acid Trifluoroacetic Acid] |
| > 8.00 |  | COc1cc(-c2cn(C)c(=O)c3cc(-c4nc5ccncc5[nH]4)sc23)cc(OC)c1CN(C)C [Compound B2, 7-[4-[(dimethylamino)methyl]-3,5-dimethoxyphenyl]-2-[3H-imidazo[4,5-c]pyridin-2-yl]-5-methylthieno[3,2-c]pyridin-4-one] |
| < 8.00 |  | COc1ccc(-c2cn(C)c(=O)c3cc(-c4ncc[nH]4)sc23)cc1OC [Compound B9, 7-(3,4-dimethoxyphenyl)-2-(1H-imidazol-2-yl)-5-methyl-4H,5H-thieno[3,2-c]pyridine-4-one] |
